Reference: US20260001928A1 (CORTERIA PHARMACEUTICALS, priority 2022, published 2026)
*1 amine or outer side, *2 acyl side, *3 side chain or, on linkers, in order; H or OH if unused. Where a SMILES comes first, the peptide text is derived from it. Side-chain parts run from the residue outwards. [ ]: non-standard residue; d: D form. The star is where a group is joined. C18 diacid = O=C(O)CCCCCCCCCCCCCCCCC(=O)*; C16 diacid = O=C(O)CCCCCCCCCCCCCCC(=O)*; γGlu = O=C(O)[C@H](CCC(=O)[*:2])N[*:1]; NMeI = CC[C@H](C)[C@H](NC)C(=O)O; Pentanoyl = CCCCC(=O)*; AEEA = NCCOCCOCC(=O)O; Aib = CC(C)(N)C(=O)O

Key:
[1] = target: T1, CFR1R receptor (Homo sapiens, UniProt P34998); assay: Activity at anti-target CFR1R receptor, cAMP assay in CRF1R-overexpression CHO-K1 cells; assay type: cell-based; conditions: 100% = Sauvagine at 100 nM; for EC50: cAMP
T1 construct: host or cells: CHO-K1 (clone 2)
T1 sequence (P34998 24-415): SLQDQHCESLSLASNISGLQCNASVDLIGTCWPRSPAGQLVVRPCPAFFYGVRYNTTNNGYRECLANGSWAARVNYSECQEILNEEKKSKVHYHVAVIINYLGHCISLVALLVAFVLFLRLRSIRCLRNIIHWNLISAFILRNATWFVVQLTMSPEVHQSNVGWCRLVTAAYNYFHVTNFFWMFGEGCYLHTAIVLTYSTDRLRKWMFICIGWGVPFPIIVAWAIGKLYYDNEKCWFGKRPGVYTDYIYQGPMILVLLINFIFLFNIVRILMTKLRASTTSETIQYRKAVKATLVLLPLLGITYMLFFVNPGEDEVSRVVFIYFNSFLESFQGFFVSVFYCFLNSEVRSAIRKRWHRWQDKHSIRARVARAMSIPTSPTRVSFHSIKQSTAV
How it was run: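 Clone 2; cryopreserved stocks (10% DMSO); 4000 cells/well final; 100% activation = Sauvagine 100 nM; otherwise as TeloHAEC protocol.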

[2] = target: T2, human CRF2a receptor (Homo sapiens, UniProt Q13324); assay: Activity at human CRF2a receptor, cAMP functional assay in TeloHEAC cells; assay type: cell-based; conditions: TeloHEAC cells stably expressing human CRF2a receptor, relative to urocortin 2 (100 nM = 100%)
T2 construct: expressed in transfected cells; host or cells: TeloHEAC cells
T2 sequence (Q13324 1-411): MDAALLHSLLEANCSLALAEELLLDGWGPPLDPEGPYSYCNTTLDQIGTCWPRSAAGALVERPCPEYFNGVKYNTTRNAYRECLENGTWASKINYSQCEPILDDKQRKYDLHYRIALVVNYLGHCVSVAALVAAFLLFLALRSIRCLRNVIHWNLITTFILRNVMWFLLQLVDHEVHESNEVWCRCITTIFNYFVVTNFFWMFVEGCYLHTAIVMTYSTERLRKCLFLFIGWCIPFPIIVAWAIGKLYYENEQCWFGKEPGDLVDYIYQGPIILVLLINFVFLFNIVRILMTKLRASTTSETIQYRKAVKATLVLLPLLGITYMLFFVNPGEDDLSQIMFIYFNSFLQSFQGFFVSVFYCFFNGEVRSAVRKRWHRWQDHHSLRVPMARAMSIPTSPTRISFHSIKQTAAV
How it was run: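 TeloHEAC cells stably expressing human CRF2a (10000 cells/well) were treated with 16-point 1:2 compound dilutions in HBSS/20 mM HEPES with IBMX for 30 min at 37° C. cAMP was read by HTRF (665/620 nm ratio). EC50 was the concentration giving 50% activation, with 100 nM urocortin 2 set as 100%.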

SMILES | Emax (% I) [1] [% I] | EC50 [1] [nM] | EC50 [2] [nM]
CCCCC(=O)N[C@H](C(=O)N[C@@H](CC(C)C)C(=O)N[C@@H](CO)C(=O)N[C@@H](CC(C)C)C(=O)N[C@@H](CC(=O)O)C(=O)N[C@@H](C(=O)N1CCC[C@H]1C(=O)N[C@H](C(=O)NCC(=O)N[C@@H](CC(C)C)C(=O)N[C@@H](CCCCNC(=O)CC[C@H](NC(=O)CCCCCCCCCCCCCCCCC(=O)O)C(=O)O)C(=O)N[C@@H](CCCCN)C(=O)N[C@H](C(=O)N[C@@H](CC(C)C)C(=O)N[C@@H](CC(C)C)C(=O)N[C@@H](CCC(=O)O)C(=O)N[C@@H](CCC(N)=O)C(=O)N[C@@H](CCC(=O)O)C(=O)N[C@@H](CCCCN)C(=O)N[C@@H](CCC(N)=O)C(=O)N[C@@H](CCCCN)C(=O)N[C@@H](CCCCN)C(=O)N[C@@H](CCC(N)=O)C(=O)N[C@@H](CCCNC(=N)N)C(=O)N[C@@H](CCC(=O)O)C(=O)N[C@@H](CCC(N)=O)C(=O)N[C@@H](C)C(=O)N[C@@H](CCC(=O)O)C(=O)N[C@H](C(=O)N[C@@H](CC(N)=O)C(=O)NC(C)(C)C(=O)N[C@@H](CCC(N)=O)C(=O)N[C@H](C(=O)N[C@@H](CC(C)C)C(=O)N[C@@H](C)C(=O)N[C@@H](CCC(N)=O)C(=O)N[C@H](C(N)=O)C(C)C)[C@@H](C)CC)[C@@H](C)O)[C@@H](C)CC)[C@@H](C)CC)C(C)C)C(C)C [compound 195] (Pentanoyl-VLSLD[dV]PIGLK([γGlu-C18 diacid])KILLEQEKQKKQREQAETN[Aib]QILAQV-NH2) | 42 |  | 0.21
CC[C@H](C)[C@H](NC)C(=O)N[C@H](C(=O)N[C@@H](CC(C)C)C(=O)N[C@@H](CO)C(=O)N[C@@H](CC(C)C)C(=O)N[C@@H](CC(=O)O)C(=O)N[C@@H](C(=O)N1CCC[C@H]1C(=O)N[C@H](C(=O)N[C@@H](CCCCN)C(=O)N[C@@H](CC(C)C)C(=O)N[C@@H](CCCCNC(=O)CC[C@H](NC(=O)CCCCCCCCCCCCCCC(=O)O)C(=O)O)C(=O)N[C@@H](CCCCN)C(=O)N[C@H](C(=O)N[C@@H](CC(C)C)C(=O)N[C@@H](CC(C)C)C(=O)N[C@@H](CCC(=O)O)C(=O)N[C@@H](CCC(N)=O)C(=O)N[C@@H](CCC(=O)O)C(=O)N[C@@H](CCCCN)C(=O)N[C@@H](CCC(N)=O)C(=O)N[C@@H](CCCCN)C(=O)NC(C)(C)C(=O)N[C@@H](CCC(N)=O)C(=O)N[C@@H](CCCNC(=N)N)C(=O)N[C@@H](CCC(=O)O)C(=O)N[C@@H](CCC(N)=O)C(=O)N[C@@H](C)C(=O)N[C@@H](CCC(=O)O)C(=O)N[C@H](C(=O)N[C@@H](CC(N)=O)C(=O)NC(C)(C)C(=O)N[C@@H](CCC(N)=O)C(=O)N[C@H](C(=O)N[C@@H](CC(C)C)C(=O)N[C@@H](C)C(=O)N[C@@H](CCC(N)=O)C(=O)N[C@H](C(N)=O)C(C)C)[C@@H](C)CC)[C@@H](C)O)[C@@H](C)CC)[C@@H](C)CC)C(C)C)C(C)C [compound 75] (H-[NMeI]VLSLD[dV]PIKLK([γGlu-C16 diacid])KILLEQEKQK[Aib]QREQAETN[Aib]QILAQV-NH2) | 3 | > 250 | 0.19

Now from value to compound:

Emax (% I) [1] [% I] | EC50 [1] [nM] | EC50 [2] [nM] | SMILES
3 | > 250 | 3.09 | CC[C@H](C)[C@H](NC(C)=O)C(=O)N[C@H](C(=O)N[C@@H](CC(C)C)C(=O)N[C@@H](CO)C(=O)N[C@@H](CC(C)C)C(=O)N[C@@H](CC(=O)O)C(=O)N[C@@H](C(=O)N1CCC[C@H]1C(=O)N[C@H](C(=O)N[C@@H](CCCCN)C(=O)N[C@@H](CC(C)C)C(=O)N[C@@H](CCCCNC(=O)COCCOCCNC(=O)COCCOCCNC(=O)CC[C@H](NC(=O)CCCCCCCCCCCCCCCCC(=O)O)C(=O)O)C(=O)N[C@@H](CCCCN)C(=O)N[C@H](C(=O)N[C@@H](CC(C)C)C(=O)N[C@@H](CC(C)C)C(=O)N[C@@H](CCC(=O)O)C(=O)N[C@@H](CCC(N)=O)C(=O)N[C@@H](CCC(=O)O)C(=O)N[C@@H](CCCCN)C(=O)N[C@@H](CCC(N)=O)C(=O)N[C@@H](CCCCN)C(=O)N[C@@H](CCCCN)C(=O)N[C@@H](CCC(N)=O)C(=O)N[C@@H](CCCNC(=N)N)C(=O)N[C@@H](CCC(=O)O)C(=O)N[C@@H](CCC(N)=O)C(=O)N[C@@H](C)C(=O)N[C@@H](CCC(=O)O)C(=O)N[C@H](C(=O)N[C@@H](CC(N)=O)C(=O)N[C@H](C(=O)N[C@@H](CCC(N)=O)C(=O)N[C@H](C(=O)N[C@@H](CC(C)C)C(=O)N[C@@H](C)C(=O)N[C@@H](CCC(N)=O)C(=O)N[C@H](C(N)=O)C(C)C)[C@@H](C)CC)C(C)C)[C@@H](C)O)[C@@H](C)CC)[C@@H](C)CC)C(C)C)C(C)C [compound 103] (Ac-IVLSLD[dV]PIKLK([AEEA-AEEA-γGlu-C18 diacid])KILLEQEKQKKQREQAETNVQILAQV-NH2)
0 | > 250 | 1.74 | CC[C@H](C)[C@H](NC(=O)[C@H](CCC(N)=O)NC(=O)[C@H](C)NC(=O)[C@H](CC(N)=O)NC(=O)[C@@H](NC(=O)[C@H](CCC(=O)O)NC(=O)[C@H](C)NC(=O)[C@H](CCC(N)=O)NC(=O)[C@H](CCC(=O)O)NC(=O)[C@H](CCCNC(=N)N)NC(=O)[C@H](CCC(N)=O)NC(=O)[C@H](CCCCN)NC(=O)[C@H](CCCCN)NC(=O)[C@H](CCC(N)=O)NC(=O)[C@H](CCCCN)NC(=O)[C@H](CCC(=O)O)NC(=O)[C@H](CCC(N)=O)NC(=O)[C@H](CCC(=O)O)NC(=O)[C@H](CC(C)C)NC(=O)[C@H](CC(C)C)NC(=O)[C@@H](NC(=O)[C@H](CCCCN)NC(=O)[C@H](CCCCNC(=O)COCCOCCNC(=O)COCCOCCNC(=O)CC[C@H](NC(=O)CCCCCCCCCCCCCCCCC(=O)O)C(=O)O)NC(=O)[C@H](CC(C)C)NC(=O)[C@H](CCCCN)NC(=O)[C@@H](NC(=O)[C@@H]1CCCN1C(=O)[C@H](NC(=O)[C@H](CC(=O)O)NC(=O)[C@H](CC(C)C)NC(=O)[C@H](CO)NC(=O)[C@H](CC(C)C)NC(=O)[C@@H](NC(C)=O)C(C)C)C(C)C)[C@@H](C)CC)[C@@H](C)CC)[C@@H](C)O)C(=O)N[C@@H](CC(C)C)C(=O)N[C@@H](C)C(=O)N[C@@H](CCC(N)=O)C(=O)N[C@H](C(N)=O)C(C)C [compound 101] (Ac-VLSLD[dV]PIKLK([AEEA-AEEA-γGlu-C18 diacid])KILLEQEKQKKQREQAETNAQILAQV-NH2)
0 | > 250 | 3.17 | CC[C@H](C)[C@H](NC(C)=O)C(=O)N[C@H](C(=O)N[C@@H](CC(C)C)C(=O)N[C@@H](CO)C(=O)N[C@@H](CC(C)C)C(=O)N[C@@H](CC(=O)O)C(=O)N[C@H](C(=O)N1CCC[C@H]1C(=O)N[C@H](C(=O)N[C@@H](CCCCN)C(=O)N[C@@H](CC(C)C)C(=O)N[C@@H](CCCCNC(=O)COCCOCCNC(=O)COCCOCCNC(=O)CC[C@H](NC(=O)CCCCCCCCCCCCCCCCC(=O)O)C(=O)O)C(=O)N[C@@H](CCCCN)C(=O)N[C@H](C(=O)N[C@@H](CC(C)C)C(=O)N[C@@H](CC(C)C)C(=O)N[C@@H](CCC(=O)O)C(=O)N[C@@H](CCC(N)=O)C(=O)N[C@@H](CCC(=O)O)C(=O)N[C@@H](CCCCN)C(=O)N[C@@H](CCC(N)=O)C(=O)N[C@@H](CCCCN)C(=O)N[C@@H](CCCCN)C(=O)N[C@@H](CCC(N)=O)C(=O)N[C@@H](CCCNC(=N)N)C(=O)N[C@@H](CCC(=O)O)C(=O)N[C@@H](CCC(N)=O)C(=O)N[C@@H](C)C(=O)N[C@@H](CCC(=O)O)C(=O)N[C@H](C(=O)N[C@@H](CC(N)=O)C(=O)NC(C)(C)C(=O)N[C@@H](CCC(N)=O)C(=O)N[C@H](C(=O)N[C@@H](CC(C)C)C(=O)N[C@@H](C)C(=O)N[C@@H](CCC(N)=O)C(=O)N[C@H](C(N)=O)C(C)C)[C@@H](C)CC)[C@@H](C)O)[C@@H](C)CC)[C@@H](C)CC)C(C)C)C(C)C [compound 97] (Ac-IVLSLDVPIKLK([AEEA-AEEA-γGlu-C18 diacid])KILLEQEKQKKQREQAETN[Aib]QILAQV-NH2)
